According to PMC8092876, “A Leucyl-tRNA Synthetase Inhibitor with Broad-Spectrum Antimycobacterial Activity” (Antimicrobial Agents and Chemotherapy, 2021):
≈ marks a conversion by molar mass, not a printed value.

Legend:
Experiment in all cases: MIC assay in 96-well plate format
Format in all cases: cell-based
[1] = tested on: M. abscessus subsp. abscessus M422; conditions: Mycobacteroides abscessus; M. abscessus subsp. abscessus M422, clinical isolate
[2] = tested on: M. abscessus subsp. bolletii M506; conditions: Mycobacteroides abscessus; M. abscessus subsp. bolletii M506, clinical isolate
[3] = tested on: M. abscessus subsp. abscessus M9; conditions: Mycobacteroides abscessus; M. abscessus subsp. abscessus M9, clinical isolate
[4] = tested on: M. intracellulare ATCC 13950; conditions: Mycobacterium intracellulare, ATCC13950; M. intracellulare ATCC 13950, culture collection reference strain
[5] = tested on: M. abscessus subsp. bolletii CCUG 50184T; conditions: Mycobacteroides abscessus, culture collection reference strain

CC(C)(O)COc1ccc(Br)c2c1B(O)O[C@@H]2CN [EC/11770]
MIC [1]: 0.33 µM (≈ 0.109 µg/mL)
MIC [2]: 0.48 µM (≈ 0.158 µg/mL)
MIC [3]: 0.49 µM (≈ 0.162 µg/mL)
MIC [4]: 0.37 µM (≈ 0.122 µg/mL)
MIC [5]: 1.3 µM (≈ 0.429 µg/mL)
